{"source": "patent US12503455B2", "about": "“Nucleic acid-binding photoprobes and uses thereof” (Arrakis Therapeutics, Inc., priority 2017, dated 2025)", "key": {"[1]": {"test_system": "Aptamer 21-E", "assay": "SEC/LCMS binding to Aptamer 21-E", "procedure": "The RNA concentration was 1 μM and the ligand concentration ranged from 0.1 to 10 μM in an appropriate buffer (TRIS-HCl 20 mM pH 8.0, MgCl2 3 mM, KCl 100 mM).\nThe RNA/ligand mixtures were incubated at room temperature for 20 minutes in a 96-well plate format, then this plate was loaded into an autosampler linked to the chromatography system fitted with a reusable SEC column for rapid separation of target/ligand complexes from unbound components. RNA/ligand complexes in SEC eluent were monitored by UV detection, and an automated valving system directed the RNA peak to a reverse phase chromatography column for dissociation, desalting, and elution of any ligands into an ESI-MS system for identification.\nAll liquid chromatographic components were HP1200 modules. The mass spectrometer was the Waters LCT premier instrument operated in positive electrospray (ES+) TOF-MS mode. The mass range acquired was 80-1000 m/z in 0.25 s. The SEC column was 50×4.6 mm polyhydroxyethyl column. The SEC mobile phase was 50 mM phosphate buffer with 200 mM NaCl, pH=7.0. The LC column was a 2.1×50 mm C18 Phenomenex column. The gradient LC mobile phase A was 0.1% formic acid in water and B was acetonitrile/water with 0.1% formic acid. The run time was 7.9 min.\nThe start of saturation was between 1 and 3 μM."}, "[2]": {"test_system": "Aptamer 21-E", "assay": "SHAPE-MaP on Aptamer 21-E with and without ligand", "conditions": "suggesting weak binding", "procedure": "The SHAPE-MaP approach exploits conditions that cause reverse transcriptase to misread SHAPE-modified nucleotides and incorporate a nucleotide non-complementary to the original sequence into the newly synthesized cDNA. The positions and relative frequencies of SHAPE adducts are recorded as mutations in the cDNA primary sequence. In a SHAPE-MaP experiment, the RNA is treated with a SHAPE reagent or treated with solvent only, and the RNA is […]. RNA from each experimental condition is reverse-transcribed, and the resulting cDNAs are then sequenced. […]\nSHAPE-MaP can be performed and analyzed according to detailed published methods (Martin et al., RNA 2012; 18:77-87; McGuinness et al., J. Am. Chem. Soc. 2012; 134:6617-6624; Siegfried et al., Nature Methods 2014; 11:959-965; Lavender et al., PLoS Comput. Biol. 2015; 11(5)e1004230; McGuinness et al., Proc. Natl. Acad. Sci. USA 2015; 112:2425-2430). The SHAPE-MaP sequence data can be analyzed using ShapeFinder (Vasa et al., RNA 2008; 14:1979-1990) or ShapeMapper (Siegfried et al., Nature Methods 2014; 11:959-965) or other software. […]\nFor all SHAPEware analysis, reads were adapter-trimmed aligned as previously described (https://bitbucket.org/arrakistx/shapeware/src) using Trimmomatic (http://dx.doi.org/10.1093/bioinformatics/btu170) and bwa-mem (https://arxiv.org/abs/1303.3997), respectively. […]"}, "[3]": {"test_system": "Aptamer 21", "assay": "Competition between Aptamer 21 photoprobes and RNA-binding ligands (RT pausing)", "procedure": "Aptamer 21 was either incubated with probe alone (ARK-581) or probe plus a 10-fold excess of RNA-binding ligand.\nBoth ARK-852 and ARK-139 inhibit the photocrosslinking of probes to Aptamer 21.\nFolded RNA (1 μM) was incubated with the photoaffinity probe (10 μM) in total 25 μL of buffer (20 mM TrisHCl pH 8, 100 mM KCl, 3 mM MgCl2) with 2.5% DMSO for 30 min at 37° C. to allow binding to come to equilibrium. The sample was then irradiated with long wave UV light (˜365 nm) for 30 min in a UV crosslinker (Fisher Scientific).\nA 3.75 μL aliquot of 10 μM reverse transcription primer was added to the cross-linked RNA sample, which was then incubated for 5 min at 65° C. and then cooled on ice. The sample was then diluted to a final volume of 60 μL and final buffer concentration of 1× Protoscript-II buffer (New England Biolabs), 0.5 mM dNTPs, 10 mM DTT, 0.4 U/μL RNase Inhibitor (New England Biolabs), and 10 U/μL Protoscript-II (New England Biolabs). The reaction was incubated at 45° C. for 2 h, 65° C. for 20 min, and then 4° C.\nThe RNA was hydrolyzed by the addition of 4.8 μL of 2.5 M NaOH and heating at 95° C. for 5 min. The reaction was quenched by the addition of 0.9 μL of acetic acid. The cDNA was precipitated by the addition of 6.6 μL of 3 M sodium acetate pH 5 and 181 μL ethanol, cooling to −80° C. for 1 h, and then centrifuging at 20,500×g at 4° C. for 30 min. The cDNA pellet was washed twice with 500 μL of 70% ethanol and then air dried for 5 min.\nThe cDNA pellet was resuspended in 12 μL of 1×TBE-urea sample loading buffer (Bio-Rad) and heated to 95° C. for 5 min. The sample was then run on a pre-cast 8.6×6.7 cm TBE-urea 10% PAGE gel (Bio-Rad) at 120 V until the lower bromophenol blue dye reached the bottom of the gel. The gel was stained with 1×SYBR-gold (Invitrogen) in 1×TBE buffer at room temperature for 20 min covered from light. The gel fluorescence was imaged on an Azure c600 instrument."}}}
{"smiles": "COC(=O)C1=C(COCc2cn(CCOCCOCCO)nn2)NC(c2ccncc2)=NC1c1ccc(F)cc1Cl", "note": "(racemic) [I-1]", "values": [{"measurement": "binding to Aptamer 21-E by SEC/LCMS", "setting": "[1]", "value": "does not bind"}, {"measurement": "alteration in SHAPE reactivity of Aptamer 21-E in presence of ligand", "setting": "[2]", "value": "almost no alteration"}, {"measurement": "inhibition of photocrosslinking of ARK-581 to Aptamer 21", "setting": "[3]; 10-fold excess of RNA-binding ligand over probe", "value": "efficiently inhibited"}, {"measurement": "inhibition of photocrosslinking of probes to Aptamer 21 (RT pausing competition assay)", "setting": "[3]; FIG. 65", "value": "inhibit"}]}
